≈ marks a conversion by molar mass, not a printed value.
Experiment: Equilibrium solubility by HPLC
Format: physicochemical
[1] = comparative equilibrium solubility (Table 2), solvent 0.1 N HCl
[2] = comparative equilibrium solubility (Table 2), solvent PEG 400
[3] = comparative equilibrium solubility (Table 2), solvent Phosphate Buffer, pH 7.4

Solubility [1] | Solubility [2] | Solubility [3] | Solubility (equilibrium solubility, solvent 0.1 N HCl) | Solubility (equilibrium solubility, solvent 10% Cremophor RH 40) | Solubility (equilibrium solubility, solvent 10% Polysorbate 80) | Solubility (equilibrium solubility, solvent 20% Polyethylene Glycol (PEG) 400) | Solubility (equilibrium solubility, solvent 20% Propylene Glycol) | Solubility (equilibrium solubility, solvent 30% HP-Beta-Cyclodextrin) | Solubility (equilibrium solubility, solvent Acetate Buffer, pH 4.0) | Solubility (equilibrium solubility, solvent Ethanol) | Solubility (equilibrium solubility, solvent Phosphate Buffer, pH 7.4) | Solubility (equilibrium solubility, solvent Polyethylene Glycol (PEG) 400) | Solubility (equilibrium solubility, solvent Propylene Glycol) | SMILES
392 µg/mL (≈ 1470 µM) | 24400 µg/mL (≈ 91500 µM) | 33 µg/mL (≈ 124 µM) | 392 µg/mL (≈ 1470 µM) | 643 µg/mL (≈ 2410 µM) | 1190 µg/mL (≈ 4460 µM) | 124 µg/mL (≈ 465 µM) | 65 µg/mL (≈ 244 µM) | 2190 µg/mL (≈ 8210 µM) | 25 µg/mL (≈ 93.7 µM) | 2900 µg/mL (≈ 10900 µM) | 33 µg/mL (≈ 124 µM) | 24400 µg/mL (≈ 91500 µM) | 4460 µg/mL (≈ 16700 µM) | CN1CC(=O)NC1=NC(=O)Nc1cccc(Cl)c1 [Fenobam]
303 µg/mL | 5650 µg/mL | 27 µg/mL | – | – | – | – | – | – | – | – | – | – | – | CN1CC(=O)N=C1NC(=O)Nc1cccc(Cl)c1.O=S(=O)(O)O [Fenobam Sulfate]
308 µg/mL | 34500 µg/mL | 39 µg/mL | – | – | – | – | – | – | – | – | – | – | – | CN1CC(=O)N/C1=N\C(=O)Nc1cccc(Cl)c1.O [Fenobam Monohydrate]

Source: US9717678B2, “Delivery systems for improving oral bioavailability of Fenobam, its hydrates, and salts” (MURTY PHARMACEUTICALS, INC., priority 2011, dated 2017)
